Results on ten compounds are retold here after US20040220148A1, “5-Membered ring heterocycles as inhibitors of leucocyte adhesion and as VLA-4 antagonists” (Aventis Pharma Deutschland GmbH, priority 1996, published 2004).

In general, IC50 refers to the concentration that gives 50% inhibition. Low readings indicate greater potency in that assay, high ones weaker potency in that assay.

In the test the target is T1, VLA-4 integrins on human U937 cells (interaction between VCAM-1 and VLA-4) (Homo sapiens, UniProt P05556+P13612).
T1 construct: the VLA-4 integrins, are offered in their natural form as surface molecules on human U937 cells; host or cells: U937 cells (VLA-4, endogenous); the partner hVCAM-1(1-3)-IgG came from the supernatant of transfected COS cells (ATCC CRL1651)
T1 sequence (P13612 34-1032): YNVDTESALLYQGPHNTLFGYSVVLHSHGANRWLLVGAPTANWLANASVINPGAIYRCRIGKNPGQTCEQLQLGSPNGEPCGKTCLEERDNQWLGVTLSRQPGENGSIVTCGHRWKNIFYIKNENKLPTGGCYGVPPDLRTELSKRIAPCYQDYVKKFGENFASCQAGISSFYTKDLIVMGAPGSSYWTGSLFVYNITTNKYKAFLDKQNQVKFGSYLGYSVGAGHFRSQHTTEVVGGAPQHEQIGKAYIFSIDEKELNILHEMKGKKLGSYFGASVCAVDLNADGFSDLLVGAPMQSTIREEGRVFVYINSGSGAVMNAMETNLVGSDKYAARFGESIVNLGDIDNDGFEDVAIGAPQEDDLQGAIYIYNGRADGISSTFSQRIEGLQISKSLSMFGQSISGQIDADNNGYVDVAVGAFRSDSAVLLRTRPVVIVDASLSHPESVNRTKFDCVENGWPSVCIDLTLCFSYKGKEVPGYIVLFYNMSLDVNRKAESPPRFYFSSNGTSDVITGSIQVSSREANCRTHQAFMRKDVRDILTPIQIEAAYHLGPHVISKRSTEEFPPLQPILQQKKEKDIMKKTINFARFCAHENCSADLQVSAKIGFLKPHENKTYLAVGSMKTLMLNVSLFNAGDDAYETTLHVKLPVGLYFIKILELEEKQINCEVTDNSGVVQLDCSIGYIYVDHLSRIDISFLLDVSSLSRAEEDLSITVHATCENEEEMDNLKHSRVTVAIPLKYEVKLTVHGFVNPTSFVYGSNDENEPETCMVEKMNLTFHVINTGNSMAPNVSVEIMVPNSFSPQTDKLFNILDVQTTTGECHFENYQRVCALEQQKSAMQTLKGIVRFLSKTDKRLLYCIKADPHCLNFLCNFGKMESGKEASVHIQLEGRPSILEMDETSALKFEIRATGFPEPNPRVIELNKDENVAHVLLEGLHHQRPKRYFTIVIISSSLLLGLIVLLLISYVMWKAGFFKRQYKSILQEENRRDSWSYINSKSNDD
T1 sequence (P05556 21-798): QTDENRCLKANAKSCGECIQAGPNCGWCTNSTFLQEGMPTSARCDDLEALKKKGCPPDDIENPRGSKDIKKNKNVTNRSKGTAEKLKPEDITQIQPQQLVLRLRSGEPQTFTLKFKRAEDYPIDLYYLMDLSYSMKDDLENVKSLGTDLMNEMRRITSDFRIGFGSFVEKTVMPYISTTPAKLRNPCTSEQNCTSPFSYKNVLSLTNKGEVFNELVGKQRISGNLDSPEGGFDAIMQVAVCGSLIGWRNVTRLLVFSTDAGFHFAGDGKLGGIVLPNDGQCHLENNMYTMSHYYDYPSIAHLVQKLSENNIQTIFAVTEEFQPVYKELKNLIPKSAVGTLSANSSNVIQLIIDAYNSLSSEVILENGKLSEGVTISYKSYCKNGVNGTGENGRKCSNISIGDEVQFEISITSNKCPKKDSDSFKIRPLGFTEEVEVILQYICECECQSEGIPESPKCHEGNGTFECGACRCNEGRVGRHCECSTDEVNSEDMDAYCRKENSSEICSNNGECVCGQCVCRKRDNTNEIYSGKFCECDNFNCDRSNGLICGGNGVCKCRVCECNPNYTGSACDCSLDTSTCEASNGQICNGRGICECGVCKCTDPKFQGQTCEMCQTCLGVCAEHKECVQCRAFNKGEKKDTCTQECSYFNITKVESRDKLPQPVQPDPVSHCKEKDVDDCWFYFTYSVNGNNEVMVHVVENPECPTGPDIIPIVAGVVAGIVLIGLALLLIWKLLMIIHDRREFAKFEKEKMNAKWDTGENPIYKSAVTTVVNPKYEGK
Briefly: U937/VCAM-1 cell adhesion test (adhesion of U937 cells to hVCAM-1(1-3)-IgG). The test is classed as cell-based. The settings on record: concentration leading to 50% inhibition of adhesion.
Take `COc1cc(OC)cc(C(CC(=O)O)NC(=O)CN2C(=O)N(Cc3ccccc3)C(C)(c3ccc(C(=N)N)cc3)C2=O)c1` [Example 59, (R,S)-3-(((R,S)-4-(4-(Amino-imino-methyl)phenyl)-3-benzyl-4-methyl-2,5-dioxoimidazolidin-1-yl)acetylamino)-3-(3,5-dimethoxyphenyl)propionic acid]: 27.5 µM corresponded to half-maximal inhibition (IC50).

On to `CC(C(=O)N[C@@H](CC(=O)O)C(=O)N[C@H](C(=O)O)c1ccccc1)N1C(=O)N(Cc2ccccc2)C(C)(c2ccc(C(=N)N)cc2)C1=O` (stereo partly drawn) [Example 62, ((R,S)-2-((R,S)-4-(4-(Amino-imino-methyl)phenyl)-3-benzyl-4-methyl-2,5-dioxoimidazolidin-1-yl)-2-methylacetyl)-L-aspartyl-L-phenylglycine], for which the midpoint of inhibition, the IC50, lay at 0.37 µM.

For `C[C@]1(c2ccc(C(=N)N)cc2)C(=O)N(CC(=O)N[C@@H](CC(=O)O)C(=O)N[C@H](C(=O)O)c2ccccc2)C(=O)N1Cc1ccccc1` [Example 63], half-maximal inhibition (IC50) required 0.22 µM. Compared with the last compound, the IC50 is about 1.7-fold lower.

Consider `CC1(c2ccc(C(=N)N)cc2)C(=O)N(CC(=O)NC[C@H](NC(=O)OCc2ccc(C(F)(F)F)cc2)C(=O)O)C(=O)N1Cc1ccccc1` (stereo partly shown) [Example 67], for which the midpoint of inhibition, the IC50, lay at 2.25 µM.

As for `CC1(c2ccc(CNC(=N)N)cc2)C(=O)N(CC(=O)N[C@@H](CC(=O)O)C(=O)N[C@H](C(=O)O)c2ccccc2)C(=O)N1Cc1ccccc1` (stereo partly drawn) [Example 69, ((R,S)-4-(4-Guanidinomethylphenyl)-3-benzyl-4-methyl-2,5-dioxo-imidazolidin-1-yl)acetyl-L-aspartyl-L-phenylglycine], the IC50 amounted to 4.5 µM.

Consider `CC1(c2ccc(N)cc2)C(=O)N(CC(=O)N[C@@H](CC(=O)O)C(=O)N[C@H](C(=O)O)c2ccccc2)C(=O)N1Cc1ccccc1` (stereo partly drawn) [Example 70, ((R,S)-4-(4-Aminophenyl)-3-benzyl-4-methyl-2,5-dioxoimidazolidin-1-yl)acetyl-L-aspartyl-L-phenylglycine], for which the IC50 is 3 µM. Compared with the last compound, the IC50 is about 1.5-fold lower.

The compound `CC1(c2ccc(NC(=N)N)cc2)C(=O)N(CC(=O)N[C@@H](CC(=O)O)C(=O)N[C@H](C(=O)O)c2ccccc2)C(=O)N1Cc1ccccc1` (stereo partly drawn) [Example 71, ((R,S)-4-(4-Guanidinophenyl)-3-benzyl-4-methyl-2,5-dioxoimidazolidin-1-yl)acetyl-Laspartyl-L-phenylglycine] displayed an IC50 of 3.25 µM.

On to `CC1(Cc2ccc(NC(=N)N)cc2)C(=O)N(CC(=O)N[C@@H](CC(=O)O)C(=O)N[C@H](C(=O)O)c2ccccc2)C(=O)N1Cc1ccccc1` (stereo partly drawn) [Example 73, ((R,S)-4-(4-Guanidinobenzyl)-3-benzyl-4-methyl-2,5-dioxoimidazolidin-1-yl)acetyl-L-aspartyl-L-phenylglycine], for which the IC50 is 125 µM.

As to “((S)-4-(3-Guanidinopropyl)-3-benzyl-2,5-dioxoimidazolidin-1-yl)acetyl-D-glutamyl-L-phenylglycine-L-tyrosine hydrochloride [Example 40]”, half-maximal inhibition (IC50) was put at 27 µM.

“((S)-4-(3-Guarndinopropyl)-3-benzyl-2,5-dioxoimidazolidin-1-yl)acetyl-D-aspartyl-L-phenylglycine-L-tyrosine hydrochloride [Example 39]” showed a half-maximal inhibitory concentration (IC50) of 8 µM.
